Measurements: patent publication US9567649B2, “System for identification of microorganism and detection of infectious disease” (priority 2011, dated 2017)

Columns and labels:
Format in all cases: biochemical, Plasmodium falciparum
pfTopl [1] = assay: DNA cleavage-ligation assay with radio-labeled duplex DNA in absence or presence of CPT; details: 60 nM CPT, duplex OL62/OL63, 20 min at 37° C.
Method: Detection of PfTopl activity using radio-labeled DNA substrates: DNA cleavage reactions were carried out by incubating 20 nM duplex OL37/OL56 or OL62/OL63 with 500 fmol of pfTopl or hTopl in the absence or presence of 60 nM CPT for 20 min at 37° C. in 10 mM Tris (pH 7.5), 5 mM MgCI2, and 5 mM CaCI2 in a final volume of 20 μI. After the 20 min incubation, reactions were stopped with 0.5% (w/v) SDS. Samples were subjected to ethanol precipitation, resuspended in 10 μI of 1 mg/ml trypsin and incubated at 37° C. for 30 min. Reaction products were analyzed by denaturing polyacrylamide gel electrophoresis following standard procedures, and radioactive bands were visualized by PhosphorImaging.

pfTopl [2] = assay: REEAD: circularization of oligonucleotide sensors by purified pfTopl; details: control-circle added
Excerpt: Like human topoisomerasel (hTopl), pfTopl belongs to the family of nuclear typelB topoisomerases, which introduce transient single-strand breaks in double-stranded DNA with preference for a very degenerate consensus sequence. Cleavage results in a covalent enzyme-DNA intermediate allowing religation of the generated nick (FIG. 23). […] Based on this, five different oligonucleotides with potential of being circularized specifically by pfTopl cleavage-ligation were designed. These oligonucleotides (PfTopl (S1-S5)) all folded into a hairpin structure containing a probe- and a primer-annealing sequence in the single-stranded loop and a potential pfTopl recognizable sequence at the end of the double-stranded stem region (FIG. 1 b). […] To allow comparative quantification of signals generated in different reactions, a known concentration of control-circle with a unique probe-annealing sequence was added to the reaction mixtures before RCA and resulting RCPs visualized using a green-fluorescent probe. […]
(§1) REEAD-microscopic readout: The 5′-amine-conjugated primer was coupled to CodeLink Activated Slides (SurModics) according to the manufacturer's description. […] Quantification of pfTopl specific signals was performed as previously described^1. REEAD-HRP readout: Primer coupling to NHS-activated M-PVA Akl 1 magnetic beads (Chemagen) was performed according to the manufacturer's description. […]

pfTopl [3] = assay: REEAD in nuclear extract from HEK293T cells with or without spike-in pfTopl
Excerpt: The specificity of pfTopl(S1) for pfTopl in crude biological samples was addressed using nuclear extract from human HEK293T cells with or without spike-in pfTopl as a model for Plasmodium infection. […] Consequently, green signals observed in FIG. 22b, right panel, originated from hTopl and pfTopl activity in combination where pfTopl(S1) and S(Topl) competed for reaction by pfTopl at the expense of sensitivity.
Cell culture and nuclear extract preparation: Human embryonic kidney HEK293T cells were cultured in Dulbecco's Modified Eagle Medium (GIBCO) supplemented with 10% fetal bovine serum (FBS) (GIBCO), 100 units/mL penicillin and […] streptomycin (Invitrogen). Cells were incubated in a humidified incubator (5% CO2/95% air atmosphere at 37° C.). Cells were harvested with 0.5% Trypsin-EDTA (GIBCO).
Media was discarded and the cell washed in Phosphate-Buffered Saline (1×PBS) prior to nuclear extraction performed as previously described′. […]
as §1

With `CC[C@@]1(O)C(=O)OCc2c1cc1n(c2=O)Cc2cc3ccccc3nc2-1` [camptothecin] the “effect of camptothecin on pfTopl ligation product” value (pfTopl [1]) was “A ligation product is only observed upon incubation of the substrate with pfTopl in the absence of camptothecin”.

For “pfTopl(S1): hairpin oligonucleotide sensor for pfTopl, sequence in the 2nd table (TCTAGAAAGTATAGGAACTTCGAACGACTCAGAATGACTG; hairpin, further chemistry not given here)”, the “circularization efficiency by pfTopl (red signals relative to green signals)” value (pfTopl [2]) was “most efficient sensor of pfTopl” and the “specificity of sensor for pfTopl in nuclear extract” value (pfTopl [3]) was “specificity of pfTopl(S1) for pfTopl even on a background of human nucleus content”.

B1: S(Topl): REEAD sensor previously demonstrated to react specifically with hTopl in human cell extract (SEQ ID NO: 25) (nucleic acid)
chain: AGAAAAATTTTTAAAAAAACTGTGAAGATCGCTTATTTTTTTAAAAATTTTTCTAAGTCTTTTAGATCCCTCAATGCTGCTGCTGTACTACGATCTAAAAGACTTAGA
modifications: chemistry not given here
For B1, the “circularization efficiency by pfTopl (red signals relative to green signals)” value (pfTopl [2]) was “circularizes S(Topl)”.
